Measured values reported in patent US20030148259A1, “Method of identifying insulin secretion stimulating compounds, and the use of such compounds in treating insulin-secretion related disorders” (priority 2002, published 2003).
Ends that are not written are not given here.

Assays:
[1] = system: INS-1E cells; experiment: Insulin release from INS-1E cells (insulin ELISA); assay type: cell-based, rat
Protocol: Glucose-responsive clonal insulinoma cells (INS-1E) were cultured in RPMI-1640 medium supplemented with FBS (5%, v/v), penicillin (50 i.u. /ml), streptomycin (50 μg/ml), 2-mercaptoethanol (50 μM), HEPES (10 mM) and sodium pyruvate (1 mM) (Maechler, P. et al., IUBMB.Life 50, 27-31(2000). Medium was changed every other day.
INS-1E cells (200,000/ well) were seeded in 24-well plates and cultured for 6-7 days before using them for insulin release assay. On the day of experiment, cells were incubated in RPMI without glucose for 2 hours. Cells attached to the wells were then washed three times with warm (37° C.) medium (KRBH) containing (in mM): NaCl 140, NaHCO3 2, KCl 3.6, NaH2PO4 0.5, MgSO4 0.5, HEPES 10, CaCl2, 1.5, BSA 0.1% and incubated for 30 minutes at 37°. Cells were then incubated with 500 μl of the test solutions, by adding solution to one well at a time, every 20 sec. After one hour of incubation, 200 μl of supernatant was transferred to Eppendorf tubes, again one well at a time, every 20 sec. The collected materials were then centrifuged and supernatants were used for insulin ELISA.

[2] = system: INS-1E cells; experiment: Measurement of cAMP content; assay type: cell-based, rat; settings: caffeine 0.25-3 mM
Protocol: INS-1E cells (20000 per well) were cultured for three days in 24 well plates. On the day of the experiments cells were washed and incubated for 30 min at 37° C. in the KRBH buffer containing 3 mM glucose. Cells were then washed again and solutions containing 11.2 mM glucose and test substances were added. After 10 min, incubations were terminated by removing the medium and precipitating cell protein in 80% ice-cold ethanol. Cells were then scraped and all contents of the wells were transferred to tubes. After centrifugation at 14,000 rpm for five min, the supernatants were collected and freeze-dried over-night. The cAMP content in each sample was determined with a radio ligand-binding assay using a bovine heart cAMP-binding protein as described by Pyne, N. J. and Tolan, D., Pyne, S. in Biochem.J 328 (Pt 2), 689-694 (1997).

[3] = system: INS-1E cells; experiment: Confocal microscopy imaging of [Ca2+]i in fluo-3 loaded cells; assay type: cell-based, rat
Protocol: INS-1E cells were incubated in medium containing 5 mM glucose and 5 μM fluo-3 AM for 30 minutes followed by 10 min in medium without fluo-3Cover slips were mounted in a superfusion chamber, which was superfused with physiological solution at 3 ml/min. A three-way solenoid valve system allowed for rapid exchange of solutions. The dead space of the system (from valve inlet to chamber) was -0.5 ml. The flow was increased to 6 ml/min 15 s prior to switching from control solution to experimental solutions and reduced back to 3 ml/min after return to normal solution. [Ca^2+]1 were recorded with a BioRad laser scanning confocal system (BioRad MRC 1024) attached to a Nikon Diaphot 200 inverted microscope equipped with Nikon Plan Apo 60×1.4 NA oil immersion objective. Fluo-3 was excited at 488 nm (15 mW krypton-argon mixed gas laser, intensity attenuated to 3%) and the emitted light was collected through a 522 nm narrow band filter. Images were obtained with the iris closed to the minimum size that was compatible with good image quality. For each image, 3× Kalman averaging was used. Images were stored and converted to pseudo-color images using Scion Image software (Scion Corporation, Maryland).
Ratios were calculated using the initial fluorescence F0, and the observed fluorescence F using the equation R=F/F0, and these ratios were subsequently converted into [Ca^2+]i using the equation: [Ca^2+]i=RxKD/((KD/resting [Ca^2+]i)−R). […] Resting [Ca^2+]i in these cells under the conditions of experiment was 35 nM. All experiments were carried out at room temperature (25° C.).

[4] = system: mouse islets; experiment: Insulin release from perifused islets (radio immunoassay); assay type: cell-based; settings: for insulin secretion rate: 40-min stimulation; for stimulation of insulin secretion from islets: 2.5 mM caffeine, 6 μM MBED, FIG. 6
Protocol: Normal lean mice (BALB/c, Bomholtgard, Ry, Denmark) weighing 20-25 g were starved overnight and islets isolated by collagenase digestion and dextran purification method (Shi, C. L., Cell Transplant. 6, 33-37 (1997)). Islets were then cultured overnight in RPMI 1640 medium containing 10% FBS, 11.2 mM glucose, 60 i.u./ml penicillin and 60 μg/ml gentamicin, in a water-saturated atmosphere of air and 5% CO2.
Groups of 50 islets were transferred to a perifusion chamber housed in an infant incubator at 37° C. They were perifused at a rate of 1 ml/ min with Krebs-Ringer bicarbonate buffer supplemented with 20 mM HEPES, 0.1% BSA, glucose and drugs as required. The buffer was continuously gassed with 95% 02 and 5% CO2. The islets were perifused for 30 min with this medium containing 2 mM glucose, followed by a 40-min stimulation with 11.2 mM glucose alone (control), or 11.2 mM glucose plus drugs. During the last five minutes of perifusion with 2 mM glucose, three samples of effluent were collected to measure basal rate of insulin secretion. After switching to the 11.2 mM glucose the effluent was sampled every minute for the first five minutes and then at the intervals of 5 minutes. The average rate of insulin secretion (ng/min/50 islets) was calculated by integrating individual perifusion profile. Insulin was measured by radio immunoassay using crystalline mouse insulin as standard (Shi, C. L. cited above).

[5] = system: β-cells; experiment: Screening for CICR-active agents by periodic amplification of Ca2+ signals in single β-cells (fura-2 microfluorometry); assay type: cell-based, mouse
[6] = system: cAMP-PDEs; experiment: Phosphodiesterase assay (cAMP-PDE activity in insulinoma cell fractions); assay type: biochemical, rat; settings: for inhibition of cAMP-PDEs: methylxanthine 2.5 mM, FIG. 8D
Protocol: Rat insulinoma cells were detached from the flasks by trypsin-EDTA. The cells were homogenized in Tris buffer containing (in mM): Tris 10, sucrose 250, EDTA 1.0, phenylmethylsulphonyl fluoride 0.01 and benzamidine 1.0The homogenates were centrifuged (48,000 g, 20 min, 4° C.). Both soluble extracts and the pellet were assayed for cAMP-PDE activity with 0.5 μM 2,8-[^3H]-cyclic AMP as substrate (see Ahmad, M. et al., Br.J.Pharmacol., 129, 1228-1234 (2000) and Thompson, W. J. and Appleman, M. M., Biochemistry, 10, 311-316 (1971)). Assays were performed by the two-step radiometric assay under linear rate formation of product and where less than 10% of substrate is utilized. Activity was expressed as pmol/min/ml and percentage inhibition of the control value.

[7] = system: S5 cells; experiment: Screening for CICR by periodic amplification of Ca2+ signals in S5 cells; assay type: cell-based, rat; settings: MBED 50 μM, FIG. 4
Protocol: A new type of β-cell, called the S5 cell, which is particularly suitable for use in screening CICR-active drugs in β-cells has been developed by the present inventor. The S5 cells can be obtained from INS-1E cells by adapting the latter to culture conditions where fetal bovine serum is reduced to 2.5% and 2-mercaptoethanol is increased to 500 μM. The S5 cells are more differentiated, more slowly growing than ordinary insulinoma cells, and performs more like normal β-cells.
The S5 cells used in the examples below were obtained by adapting the cells to the above culture conditions over 37 passages. These cells were cultured in RPMI 1640, with L-Glutamine (Life Technologies: Catalog. No. 21875-034), supplemented with HEPES (10 mM, Life Technologies. Catalog. No. 15630-049), and sodium pyruvate (1 mM, Life Technologies. Catalog No. 11360-039). 2.5% (v/v) heat-inactivated fetal bovine serum was added to this medium and the medium was aliquoted in 50 ml tubes. To this medium, 500 μM 2-mercaptoethanol (Life Technologies. Catalog. No. 31350-010) and penicillin (50 i.u./ml), streptomycin (50 μg/ml) (Life Technologies. Catalog. No. 15070-063) was added immediately before the medium was used for culture. 2-mercaptoethanol (50 mM, stock) was aliquoted and stored frozen in 100 μl portions and was thawed just before use. […]

[8] = methylxanthine 2.5 mM, 11.2 mM glucose, 1 hr, FIG. 8A/8C
[9] = Example 6, FIG. 3: 10 mM glucose

C/C=C(/C)C(=O)O[C@H]1C(C)=C2[C@H]([C@@H]1OC(=O)CCCCCCC)[C@@](C)(OC(C)=O)C[C@H](OC(=O)CCC)[C@@]1(O)[C@H]2OC(=O)[C@@]1(C)O [thapsigargin]
basal insulin secretion ([1]; thapsigargin-treated (Ca2+-depleted) cells): not different compared to that in controls cells | effect on glucose-dependent caffeine-stimulated secretion ([1]; thapsigargin-treated (ER Ca2+ depleted) cells, caffeine 0.75 mM, FIG. 11A): significantly reduced but not abolished

ryanodine
effect on glucose-induced insulin secretion ([1]; 100 μM ryanodine, 1 hr exposure): did not alter the glucose-induced insulin secretion | insulin secretion rate (glucose-induced) ([1]; 100 μM ryanodine, 1 hr exposure, n=4): 193±11 ng/10^6 cell/hr | insulin secretion rate ([1]; caffeine 0.75 mM plus 100 μM ryanodine): 354±34 ng/10^6 cell/hr

Cn1c(=O)c2c(ncn2C)n(C)c1=O [caffeine]
effect on cAMP content [2]: did not increase cAMP content | change in [Ca2+]i ([3]; caffeine 5 mM, FIG. 10 upper panel): transient increase on [Ca^2+]i | insulin secretion rate ([4]; 11.2 mM glucose): 5.06±1.17 ng/min/50 islets | stimulation of insulin secretion from islets ([4]; 11.2 mM glucose): persistently stimulated both the first- and second-phases of insulin secretion | concentration giving maximal stimulation of secretion ([1]; FIG. 9B): 0.25 to 0.75 mM | insulin secretion ([1]; caffeine 0.25 mM, FIG. 9B): near-maximal stimulation of insulin secretion | insulin secretion ([1]; caffeine 0.75 mM, KATP channel bypassed by diazoxide and KCl, FIG. 8B): Stimulation of insulin secretion by caffeine (0.75 mM) was observed | insulin secretion rate ([1]; caffeine 0.75 mM, without ryanodine): 328±22 ng/10^6 cell/hr | insulin secretion ([1]; caffeine 2.5 mM, 3 mM glucose, 1 hr, FIG. 8A): did not alter insulin secretion | insulin secretion [1, 8]: stimulated secretion | periodic amplified Ca2+ release in β-cells (summary of screening) [5]: elicit periodic amplified Ca^2+ release | periodic amplification of Ca2+ signals (CICR) [5, 9]: gave rise to periodic amplifications of Ca^2+ signals

Cn1c(=O)c2ncn(C)c2n(C)c1=O [isocaffeine]
inhibition of cAMP-PDEs [6]: did not inhibit cAMP-PDEs | insulin secretion rate ([4]; 11.2 mM glucose): 1.36±0.35 ng/min/50 islets | stimulation of insulin secretion from islets ([4]; 11.2 mM glucose): no significant stimulatory effect | insulin secretion [1, 8]: stimulated insulin secretion significantly | periodic amplification of Ca2+ signals (CICR) [5, 9]: gave rise to periodic amplifications of Ca^2+ signals

O=C1CN(/N=C/c2ccc(-c3ccc([N+](=O)[O-])cc3)o2)C(O)=N1 [dantrolene]
effect on glucose-dependent stimulation of insulin secretion by caffeine ([1]; dantrolene 75 μM, FIG. 11B): abolished

Cn1cnc2c(=O)[nH]c(=O)n(C)c21 [3,9-dimethylxanthine]
inhibition of cAMP-PDEs [6]: slightly less potent than caffeine in inhibiting cAMP-PDEs | insulin secretion rate ([4]; 11.2 mM glucose): 2.76±0.81 ng/min/50 islets | stimulation of insulin secretion from islets ([4]; 11.2 mM glucose): no significant stimulatory effect | insulin secretion [1, 8]: equally effective as caffeine in stimulating insulin secretion

Cn1c2cnccc2c2c(Br)c(O)c(Br)cc21 [MBED, 5,7-dibromo-6-hydroxy-9-methylpyrido[3,4-b]indole]
potency relative to caffeine in increasing [Ca2+]i [3]: more potent than caffeine | change in [Ca2+]i ([3]; MBED 50 μM, FIG. 7): increased [Ca^2+]i | CICR (periodic amplification of Ca2+ signals) [7]: CICR can clearly be identified | Cytosolic cAMP-PDE activity ([6]; MBED 5 μM): 27.7 ± 2.5 pmol/min/mL | Membrane cAMP-PDE activity ([6]; MBED 5 μM): 26.5 pmol/min/mL | Cytosolic cAMP-PDE activity ([6]; MBED 50 μM): 31.6 ± 0.7 pmol/min/mL | Membrane cAMP-PDE activity ([6]; MBED 50 μM): 23.2 pmol/min/mL | inhibition of PDEs ([6]; MBED 5 and 50 μM, Table 1): did not inhibit PDEs | potency relative to caffeine in islets ([4]; 6 μM MBED vs 2.5 mM caffeine): clearly more potent than caffeine | reversal of stimulated secretion on wash out (lack of major toxic effect) ([4]; 11.2 mM glucose): reversed completely on wash out | stimulation of insulin secretion from islets ([4]; 11.2 mM glucose): persistently stimulated both the first- and second-phases of insulin secretion | potency in stimulating insulin secretion relative to caffeine ([1]; 11.2 mM glucose): about 400 times | insulin secretion ([1]; MBED 6 μM, 3 mM glucose, FIG. 5A): no stimulation of insulin secretion | insulin secretion ([1]; MBED 6 μM, 11.2 mM glucose, FIG. 5A): almost doubled the insulin secretion | dose response of insulin secretion ([1]; MBED 0.1 to 100 μM, 11.2 mM glucose, FIG. 5B): stimulated insulin secretion in a does-dependent manner | periodic amplified Ca2+ release in β-cells (summary of screening) [5]: elicit periodic amplified Ca^2+ release

glucagons-like peptide 1: test substance glucagons-like peptide 1 (HAEGTFTSDVSSYLEGQAAKEFIAWLVKGR; ends and bridges not checked; UniProt P01275 98-127, looked up)
periodic amplification of Ca2+ signals (CICR) ([5]; Example 5, FIG. 2: 30 mM KCl, 10 μM D600 or verapamil, 13 mM glucose): gave rise to periodic amplification of Ca^2+ signals
